# Experimental data published in US20160271100A1, “METHOD FOR TREATING TUMORS AND RADIOTHERAPY- AND CHEMOTHERAPY-[…] OR EMOTIONAL […] CANNABINOIDS” (GLIA LLC, priority 2014, published 2016).
# Assays:
# glioblastoma = assay: Course of glioblastoma (MRI/PET) under chemotherapy with or without topical dronabinol (same patient); assay type: in vivo, human; details: for adverse effects that led to discontinuation of chemotherapy: patient with glioblastoma
# Experimental: By way of reminder, the patient described in the two examples set forth above was diagnosed with glioblastoma in February 2010. Approximately 95% of the tumor was surgically removed within 3 days of diagnosis. Following the surgery, the patient was treated with radiation, as well as by chemotherapy with a combination of temozolamide, topotecan, and bevacizumab. […] In May of 2011, the combination therapy was discontinued and the patient received only maintenance bevacizumab. MRI scans were performed every two months to monitor any changes in the brain.
# The patient resumed chemotherapy with a combination of temozolamide, etoposide, and bevacizumab. […] The chemotherapy regimen was changed to carboplatin, irinotecan, together with bevacizumab.
# As mentioned above, the patient was treated with 2.5 mg topical dronabinol beginning in December 2012 and continuing to the present.
# On Mar. 19, 2014, a further increase in size of the tumor was noted. The secondary tumor was unchanged.
# In early April 2014, the patient was again treated with temozolamide and bevacizumab.
# [1] = system: chemo brain and brain fog (chemotherapy-associated cognitive or emotional impairment); assay: Daily low-dose topical dronabinol for chemo brain and brain fog induced by long term chemotherapy and radiation (single patient); details: 2.5 mg daily applied to forehead
# Experimental: A person was diagnosed with glioblastoma in February 2010 and underwent immediate surgery to remove the tumor. Within 6 weeks of the surgery, they began radiotherapy and chemotherapy with a combination of temozolamide, topotecan, and bevacizumab.
# Beginning in December of 2012 and continuing through March of 2014, the patient, who was not undergoing any chemotherapy at this time, was treated daily with 2.5 mg of dronabinol applied to their forehead. Daily evaluation by their caretaker and quarterly evaluations by a medical institution were documented during this treatment period.
# [2] = system: chemo brain and brain fog; assay: Low dose topical dronabinol for chemo brain and brain fog induced by short-term chemotherapy (same patient)
# Experimental: The patient was treated again with temozolamide, and bevacizumab.
# Each morning, the patient was treated with dronabinol as described in Example 1 supra.
# glioblastoma tumor = details: one human study; cited from earlier work
molecule,measurement,setting,value
O=NN(CCCl)C(=O)NC1CCCCC1 [lomustine],adverse effects that led to discontinuation of chemotherapy,glioblastoma,hypertension and proteinuria
Bevacizumab: chemotherapy agent,adverse effects that led to discontinuation of chemotherapy,glioblastoma,hypertension and proteinuria
"CCCCCc1cc(O)c2c(c1)OC(C)(C)[C@@H]1CCC(C)=C[C@@H]21 [dronabinol, (6aR,10aR)-6a,7,8,10a-tetrahydro-6,6,9-trimethyl-3-pentyl-6H-dibenzo[b,d]-pyran-1-ol]","cognitive functions, emotional skills, and social interaction skills",[1]; December 2012 to March 2014,showed daily and long term improvement
same,hallucinatory or adverse cognitive effects,[1]; December 2012 to March 2014,no hallucinatory or adverse cognitive effects were observed
same,"time to signs of improved recognition, memory, and social interaction after initiation of treatment",[1]; patient not on chemotherapy,1 to 2 days
same,hallucinatory or adverse cognitive effects,[2]; 2.5 mg topical each morning during chemotherapy,no hallucinatory or adverse cognitive effects were observed
same,time to significant diminishment of brain fog after each dose,[2]; 2.5 mg topical each morning during temozolamide and bevacizumab chemotherapy,≤ 45 min
same,duration of the effects of administration,"[2]; 2.5 mg topical each morning, six-week period",lasted until the following morning
same,"tumor response by MRI, chemotherapy co-administered with topical dronabinol","glioblastoma; 2.5 mg topical dronabinol continued with temozolamide and bevacizumab, MRI 6 weeks after initiation of chemotherapy",shrinkage of both the primary tumor that had regrown into the extirpated space and the secondary tumor
same,"primary tumor by MRI, topical dronabinol without chemotherapy","glioblastoma; 2.5 mg topical dronabinol, MRI December 6, 2013 and Mar. 19, 2014",increase in size of the primary tumor
same,"secondary tumor by MRI, topical dronabinol without chemotherapy","glioblastoma; 2.5 mg topical dronabinol, Mar. 19, 2014",unchanged
"CCCCCc1cc(O)c2c(c1)OC(C)(C)[C@@H]1CCC(C)=C[C@@H]21 [THC, tetrahydrocannabinol]",benefit of THC instilled into a glioblastoma tumor,glioblastoma tumor,failed to demonstrate a clear-cut benefit
